# Test: Modulation of capsid assembly in HBV infected in human HepG2.2.15 cells assessed as inhibition of viral DNA replication preincubated for 3 days followed by replacement with fresh medium containing compound and measured after 3 days by QuantiGene assay
row,Structure (SMILES),EC50 [nM]
1,"O=C(Nc1cccc(Cl)c1)N1CCc2[nH]nc(C(=O)N3CCCO3)c2C1 [US10189835, Compound 699]",120
2,"CCON(C)C(=O)c1n[nH]c2c1CN(C(=O)Nc1cccc(Cl)c1)CC2 [US10189835, Compound 599]",63
3,"CC(C)ON(C)C(=O)c1n[nH]c2c1CN(C(=O)Nc1cccc(Cl)c1)CC2 [US10189835, Compound 600]",57
4,C[C@@H]1Cc2nn3c(c2CN1C(=O)Nc1ccc(F)c(C#N)c1)C(=O)N(C)O[C@@H](CF)C3,6
5,"CON(C)C(=O)c1n[nH]c2c1CN(C(=O)Nc1cccc(Cl)c1)CC2 [US10189835, Compound 434]",54
6,"CN(OC1CCOC1)C(=O)c1n[nH]c2c1CN(C(=O)Nc1cccc(Cl)c1)CC2 (centres undefined) [US10189835, Compound 910]",300
7,"CN(OC1CCC1)C(=O)c1n[nH]c2c1CN(C(=O)Nc1cccc(Cl)c1)CC2 [US10189835, Compound 805]",97
8,"CN1CC(ON(C)C(=O)c2n[nH]c3c2CN(C(=O)Nc2cccc(Cl)c2)CC3)C1 [US10189835, Compound 912]",200
9,CON(C)C(=O)c1n[nH]c2c1CN(C(=O)Nc1cccc(Cl)c1)[C@H](C)C2,330
10,"CCN(OC)C(=O)c1n[nH]c2c1CN(C(=O)Nc1cccc(Cl)c1)CC2 [US10189835, Compound 594]",90
11,C[C@@H]1Cc2nn3c(c2CN1C(=O)Nc1ccc(F)c(C#N)c1)C(=O)N(C)O[C@@H](C(=O)N(C)CC(F)F)C3,5.3
12,C[C@@H]1Cc2nn3c(c2CN1C(=O)Nc1ccc(F)c(Cl)c1)C(=O)N(C)O[C@@H](CN(C)C)C3,21
13,"CCCC(=O)c1n[nH]c2c1CN(C(=O)Nc1cccc(Cl)c1)CC2 [US10189835, Compound 561]",68
14,"CN(OCCO)C(=O)c1n[nH]c2c1CN(C(=O)Nc1cccc(Cl)c1)CC2 [US10189835, Compound 796]",155
15,C[C@@H]1Cc2nn3c(c2CN1C(=O)Nc1ccc(F)c(C(F)(F)F)c1)C(=O)N(C)O[C@@H](CO)C3,2.7
16,C[C@@H]1Cc2nn3c(c2CN1C(=O)Nc1ccc(F)c(C#N)c1)C(=O)N(C)OCC3,5.3
17,C[C@@H]1Cc2nn3c(c2CN1C(=O)Nc1ccc(F)c(Cl)c1)C(=O)N(C)O[C@H](CO)C3,4

row,Structure (SMILES),EC50 [nM]
1,C[C@@H]1Cc2nn3c(c2CN1C(=O)Nc1ccc(F)c(Cl)c1)C(=O)N(C)O[C@@H](CO)C3,4
2,O=C(Nc1cccc(Cl)c1)N1CCc2[nH]nc(C(=O)N3CCCCO3)c2C1,100
3,C[C@H]1Cc2nn3c(c2CN1C(=O)Nc1ccc(F)c(Cl)c1)C(=O)N(C)O[C@H](CO)C3,216
4,CN(OC1CCCOC1)C(=O)c1n[nH]c2c1CN(C(=O)Nc1cccc(Cl)c1)CC2 (centres undefined),370
5,C[C@@H]1Cc2nn3c(c2CN1C(=O)Nc1ccc(F)c(C#N)c1)C(=O)N(C)O[C@@H](COCC(F)F)C3,5
6,CCN(C)C(=O)c1n[nH]c2c1CN(C(=O)Nc1cccc(Cl)c1)CC2,410
7,C[C@@H]1Cc2nn3c(c2CN1C(=O)Nc1ccc(F)c(C#N)c1)C(=O)N(C)O[C@@H](CO)C3,7.3
8,CN1O[C@H](CO)Cn2nc3c(c2C1=O)CN(C(=O)Nc1ccc(F)c(Cl)c1)CC3,15
9,CN1O[C@@H](CO)Cn2nc3c(c2C1=O)CN(C(=O)Nc1ccc(F)c(Cl)c1)CC3,4
10,CN(OC1COC1)C(=O)c1n[nH]c2c1CN(C(=O)Nc1cccc(Cl)c1)CC2,24
11,CONC(=O)c1n[nH]c2c1CN(C(=O)Nc1cccc(Cl)c1)CC2,400
12,"CCCON(C)C(=O)c1n[nH]c2c1CN(C(=O)Nc1cccc(Cl)c1)CC2 [US10189835, Compound 795]",210
13,Cc1cc(NC(=O)N2Cc3c(nn4c3C(=O)N(C)O[C@@H](CO)C4)C[C@H]2C)ccc1F,3.4
14,"CON(C(=O)c1n[nH]c2c1CN(C(=O)Nc1cccc(Cl)c1)CC2)C(C)C [US10189835, Compound 595]",210
15,CCOC(=O)c1n[nH]c2c1CN(C(=O)Nc1cccc(Cl)c1)CC2,260
16,C[C@H]1Cc2nn3c(c2CN1C(=O)Nc1ccc(F)c(Cl)c1)C(=O)N(C)O[C@@H](CO)C3,54
17,CON(C)C(=O)c1n[nH]c2c1CN(C(=O)Nc1cccc(Cl)c1)[C@@H](C)C2,31

# Source: BindingDB's records for doi:10.1016/j.bmcl.2021.128353 (Novira Therapeutics, 2021)
